This is an account of results in patent US8372978B2, “Salts of methyl 2-((R)-(3-chlorophenyl)((R)-1-((S)-2-(methylamino)-3-((R)-tetrahydro-2H-pyran-3-yl)propylcarbamoyl)piperidin-3-yl)methoxy)ethylcarbamate” (Vitae Pharmaceuticals, Inc., priority 2009, dated 2013).

Structures can show the parent of a compound that is named as a salt.

The nature of data set [1]: Pharmacokinetics after oral administration, plasma by LC/MS/MS, rat. The conditions noted are these: for AUC(0-t) / DNAUC0-t / Cmax: oral, 10 mg/kg (as salt), 0.5% methylcellulose in water. The data set is classed as in vivo. How it is done: IV formulations were prepared in 1% DMSO in sterile saline. PO formulations were prepared in 0.5% methylcellulose in water, unless otherwise indicated. After compound administration, plasma samples were obtained through 24 hours post-dosing from each animal using K2EDTA as the anticoagulant. Plasma samples were treated with two volumes of acetonitrile containing an internal standard (ritanserin). Samples were centrifuged at 4,000 rpm for 10 minutes at 25° C. Ten microliters of the supernatant was analyzed using LC/MS/MS. Standard curves are prepared for each species and range from 1.0 to 500 ng/mL The compound of Formula (I) and the internal standard were separated by reverse-phase HPLC using a gradient mobile phase and detected by +APCI monitoring the transitions m/z 525→327 (compound of Formula (I)) and m/z 478→193 (ritanserin).

Data set [2] is described as follows: Pharmacokinetics after oral administration, plasma by LC/MS/MS, dog. The data set is classed as in vivo. Particulars: for DNAUC0-t / AUC(0-t) / Cmax: oral; for AUC(0-t) / Cmax: plasma. The procedure: (§1) IV formulations were prepared in 1% DMSO in sterile saline. PO formulations were prepared in 0.5% methylcellulose in water, unless otherwise indicated. After compound administration, plasma samples were obtained through 24 hours post-dosing from each animal using K2EDTA as the anticoagulant. Plasma samples were treated with two volumes of acetonitrile containing an internal standard (ritanserin). Samples were centrifuged at 4,000 rpm for 10 minutes at 25° C. Ten microliters of the supernatant was analyzed using LC/MS/MS.

Data set [3] is described as follows: Pharmacokinetics after oral administration, plasma by LC/MS/MS, monkey. In kind it is in vivo. The conditions noted are these: for DNAUC0-t / AUC(0-t) / Cmax: oral, 0.5% methylcellulose in water; for AUC(0-t) / Cmax: plasma. The procedure:
as §1

Data set [4] in a line: Water solubility. The data set is classed as physicochemical.
A short description of data set [5]: Hygroscopicity. The data set is classed as physicochemical.
Setting [6] is: 1 mg/kg (as salt), 2% DMSO in water.
Where [7] appears, read: 2 mg/kg (as salt), 0.5% methylcellulose in water.

Usually Cmax stands for the highest concentration seen after dosing. Consider `CN[C@H](CNC(=O)N1CCC[C@@H]([C@@H](OCCNC(=O)OC)c2cccc(Cl)c2)C1)C[C@H]1CCCOC1.O=C(O)/C=C/C(=O)O` [Fumarate, methyl 2-((R)-(3-chlorophenyl)((R)-1-((S)-2-(methylamino)-3-((R)-tetrahydro-2H-pyran-3-yl)propylcarbamoyl)piperidin-3-yl)methoxy)ethylcarbamate fumaric acid salt], for which the AUC(0-t) in data set [1] was 477 ng·h/mL; in data set [2] (setting [6]), 458 ng·h/mL; in data set [3] (2 mg/kg (as salt)), 381 ng·h/mL. Further, the DNAUC0-t in data set [1] was 48 ng·h/mL; in data set [2] (setting [6]) it was 458 ng·h/mL; in data set [3] (2 mg/kg (as salt)), 191 ng·h/mL. Further, the results for the Cmax in data set [1] (plasma), in data set [2] (setting [6]) and in data set [3] (2 mg/kg (as salt)) were 156 ng/mL, 286 ng/mL and 145 ng/mL, respectively.

As a reminder, the solubility is the dissolved amount per volume that the medium holds. `CN[C@H](CNC(=O)N1CCC[C@@H]([C@@H](OCCNC(=O)OC)c2cccc(Cl)c2)C1)C[C@H]1CCCOC1` [Mucate, methyl 2-((R)-(3-chlorophenyl)((R)-1-((S)-2-(methylamino)-3-((R)-tetrahydro-2H-pyran-3-yl)propylcarbamoyl)piperidin-3-yl)methoxy)ethylcarbamate mucic acid salt (Form B)]: the “in vivo bioavailability (in words)” value in data set [1], in data set [2] and in data set [3] was “good in vivo bioavailability” throughout. The DNAUC0-t in data set [1] came out at 68 ng·h/mL; in data set [2] (setting [7]), 447 ng·h/mL; in data set [3] (3 mg/kg (as salt)), 269 ng·h/mL. The figures for the maximum concentration (Cmax) in data set [1] (plasma), in data set [2] (setting [7]) and in data set [3] (3 mg/kg (as salt)) were 238 ng/mL, 294 ng/mL and 266 ng/mL, respectively. For the same compound, the AUC(0-t) in data set [1] (plasma, read-out: AUC0-t) was determined as 681 ng·h/mL; in data set [2] (setting [7]), 895 ng·h/mL; in data set [3] (3 mg/kg (as salt)) it was 807 ng·h/mL. For the same compound, in data set [4], the “water solubility (in words)” value is “good water solubility”. Further, the solubility in data set [4] (water, temperature not stated) was 65 ± 5 mg/mL. Besides, in data set [5], the “hygroscopicity (in words)” value is “sufficiently non-hygroscopic”.
